{"source": "patent US7608627B2", "about": "“6-azaindole compound” (Takeda Pharmaceutical Company Limited, priority 2005, dated 2009)", "note": "Where a name gives a salt, the structure may show the parent alone.", "data": [{"smiles": "O=C(c1ccc(Cl)c(Cl)c1)c1cc2ccncc2[nH]1", "note": "[Example 127, (3,4-Dichlorophenyl)(1H-pyrrolo[2,3-c]pyridin-2-yl)methanone]", "values": [{"measurement": "melting point", "value": "274 to 277 °C (dec.)"}]}, {"smiles": "Cl.c1ccc(CON=C(c2ccccc2)c2cc3ccncc3[nH]2)cc1", "values": [{"measurement": "melting point", "value": "153 to 155", "unit": "°C"}]}, {"smiles": "COc1ccc(C(=O)c2cc3ccncc3[nH]2)cc1", "note": "[Example 102, (4-Methoxyphenyl)(1H-pyrrolo[2,3-c]pyridin-2-yl)methanone]", "values": [{"measurement": "melting point", "value": "225 to 228", "unit": "°C"}]}, {"smiles": "c1ccc(C(=NOC2CCNCC2)c2cc3ccncc3[nH]2)cc1", "note": "(single isomer, unassigned) (as salt: hydrochloride)", "values": [{"measurement": "melting point", "value": "240 to 245 °C (dec.)"}]}, {"smiles": "O=C(NCc1ccncc1)c1cc2ccnc(N(Cc3ccccc3)Cc3ccccc3)c2[nH]1", "note": "[Example 41, 7-(Dibenzylamino)-N-(4-pyridinylmethyl)-1H-pyrrolo[2,3-c]pyridine-2-carboxamide]", "values": [{"measurement": "melting point", "value": "119 to 120", "unit": "°C"}]}, {"smiles": "O=C(NCc1cccs1)c1cc2ccnc(Cl)c2[nH]1", "note": "[Example 8, 7-Chloro-N-(2-thienylmethyl)-1H-pyrrolo[2,3-c]pyridine-2-carboxamide]", "values": [{"measurement": "melting point", "value": "179 to 181", "unit": "°C"}]}, {"smiles": "CC(=O)c1cc2ccncc2[nH]1", "note": "[Example 70, 1-(1H-Pyrrolo[2,3-c]pyridin-2-yl)ethanone]", "values": [{"measurement": "melting point", "value": "236 to 242 °C (dec.)"}]}, {"smiles": "Cl.Clc1nccc2cc(CNCc3ccccn3)[nH]c12", "values": [{"measurement": "melting point", "value": "176 to 179", "unit": "°C"}]}, {"smiles": "OCc1cc2ccnc(Cl)c2[nH]1", "note": "[Example 1, (7-Chloro-1H-pyrrolo[2,3-c]pyridin-2-yl)methanol]", "values": [{"measurement": "melting point", "value": "185 to 187", "unit": "°C"}]}, {"smiles": "O=C(NCc1ccccn1)c1cc2ccnc(Cl)c2[nH]1", "note": "[Example 4, 7-Chloro-N-(2-pyridinylmethyl)-1H-pyrrolo[2,3-c]pyridine-2-carboxamide]", "values": [{"measurement": "melting point", "value": "177 to 183", "unit": "°C"}]}, {"smiles": "Cc1ccc(C(=O)c2cc3ccncc3[nH]2)cc1", "note": "[Example 100, (4-Methylphenyl)(1H-pyrrolo[2,3-c]pyridin-2-yl)methanone]", "values": [{"measurement": "melting point", "value": "264 to 268 °C (dec.)"}]}, {"smiles": "O=C(NCc1cccnc1)c1cc2ccnc(N(Cc3ccccc3)Cc3ccccc3)c2[nH]1", "note": "[Example 37, 7-(Dibenzylamino)-N-(3-pyridinylmethyl)-1H-pyrrolo[2,3-c]pyridine-2-carboxamide]", "values": [{"measurement": "melting point", "value": "105 to 108", "unit": "°C"}]}, {"smiles": "Cl.Clc1nccc2cc(CNC3CCN(Cc4ccccc4)CC3)[nH]c12", "values": [{"measurement": "melting point", "value": "295 to 310 °C (dec.)"}]}, {"smiles": "O=C(CCc1ccccc1)c1cc2ccncc2[nH]1", "note": "[Example 89, 3-Phenyl-1-(1H-pyrrolo[2,3-c]pyridin-2-yl)propan-1-one]", "values": [{"measurement": "melting point", "value": "246 to 250", "unit": "°C"}]}, {"smiles": "O=C(NC(c1ccccc1)c1cc2ccncc2[nH]1)c1ccccc1", "note": "(centres unmarked) [Example 51, N-[Phenyl(1H-pyrrolo[2,3-c]pyridin-2-yl)methyl]benzamide]", "values": [{"measurement": "melting point", "value": "206 to 208", "unit": "°C"}]}, {"smiles": "Cl.Clc1nccc2cc(CNCc3ccccc3)[nH]c12", "values": [{"measurement": "melting point", "value": "201 to 204", "unit": "°C"}]}, {"smiles": "OC(c1ccc(Cl)c(Cl)c1)c1cc2ccncc2[nH]1", "note": "(centres unmarked) [Example 113, (3,4-Dichlorophenyl)(1H-pyrrolo[2,3-c]pyridin-2-yl)methanol]", "values": [{"measurement": "melting point", "value": "264 to 266 °C (dec.)"}]}, {"smiles": "CCNCc1cc2ccnc(Cl)c2[nH]1.Cl", "values": [{"measurement": "melting point", "value": "242 to 245 °C (dec.)"}]}, {"smiles": "O=C(c1ccccc1)c1cc2ccnc(Cl)c2[nH]1", "note": "[Example 29, (7-Chloro-1H-pyrrolo[2,3-c]pyridin-2-yl)(phenyl)methanone]", "values": [{"measurement": "melting point", "value": "152 to 153", "unit": "°C"}]}, {"smiles": "O=C(NCc1ccco1)c1cc2ccnc(Cl)c2[nH]1", "note": "[Example 7, 7-Chloro-N-(2-furylmethyl)-1H-pyrrolo[2,3-c]pyridine-2-carboxamide]", "values": [{"measurement": "melting point", "value": "205 to 209", "unit": "°C"}]}, {"smiles": "Cl.NCCO/N=C(\\c1ccccc1)c1cc2ccncc2[nH]1", "note": "[Example 95]", "values": [{"measurement": "melting point", "value": "161 to 165 °C (dec.)"}]}, {"smiles": "Cl.Clc1nccc2cc(CNCc3ccco3)[nH]c12", "values": [{"measurement": "melting point", "value": "98 to 101", "unit": "°C"}]}, {"smiles": "CN1CCN(C(=O)c2cc3ccnc(Cl)c3[nH]2)CC1", "values": [{"measurement": "melting point", "value": "230 to 232", "unit": "°C"}]}, {"smiles": "O=C(NC(c1ccccc1)c1cc2ccncc2[nH]1)c1ccncc1", "note": "(centres unmarked) [Example 49, N-[Phenyl (1H-pyrrolo[2,3-c]pyridin-2-yl)methyl]isonicotinamide]", "values": [{"measurement": "melting point", "value": "182 to 192", "unit": "°C"}]}, {"smiles": "Cc1ccc(C(O)c2cc3ccncc3[nH]2)cc1", "note": "(centres unmarked) [Example 98, (4-Methylphenyl)(1H-pyrrolo[2,3-c]pyridin-2-yl)methanol]", "values": [{"measurement": "melting point", "value": "78 to 82", "unit": "°C"}]}, {"smiles": "O=C(NC(c1ccccc1)c1cc2ccncc2[nH]1)c1cccnc1", "note": "(centres unmarked) [Example 43, N-[Phenyl(1H-pyrrolo[2,3-c]pyridin-2-yl)methyl]nicotinamide]", "values": [{"measurement": "melting point", "value": "178 to 188", "unit": "°C"}]}, {"smiles": "Cl.NCCO/N=C(\\c1ccccc1)c1cc2ccncc2[nH]1", "note": "[Example 67]", "values": [{"measurement": "melting point", "value": "176 to 184 °C (dec.)"}]}, {"smiles": "N=C(N)N/N=C(\\c1ccccc1)c1cc2cc(Cl)ncc2[nH]1", "note": "(as salt: hydrochloride)", "values": [{"measurement": "melting point", "value": "274 to 278", "unit": "°C"}]}, {"smiles": "O=C(c1ccccc1)c1cc2ccncc2[nH]1", "note": "[Example 35, Phenyl(1H-pyrrolo[2,3-c]pyridin-2-yl)methanone]", "values": [{"measurement": "melting point", "value": "245 to 247", "unit": "°C"}]}, {"smiles": "O=C(Nc1ccccn1)c1cc2ccnc(Cl)c2[nH]1", "note": "[Example 20, 7-Chloro-N-(2-pyridinyl)-1H-pyrrolo[2,3-c]pyridine-2-carboxamide]", "values": [{"measurement": "melting point", "value": "94 to 102", "unit": "°C"}]}, {"smiles": "CC(C)CC(=O)c1cc2ccncc2[nH]1", "note": "[Example 81, 3-Methyl-1-(1H-pyrrolo[2,3-c]pyridin-2-yl)-1-butanone]", "values": [{"measurement": "melting point", "value": "215 to 218", "unit": "°C"}]}, {"smiles": "O=C(c1ccccn1)c1cc2ccncc2[nH]1", "note": "[Example 122, (Pyridin-2-yl)(1H-pyrrolo[2,3-c]pyridin-2-yl)methanone]", "values": [{"measurement": "melting point", "value": "219 to 222", "unit": "°C"}]}, {"smiles": "O=C(c1cc2ccnc(Cl)c2[nH]1)N1CCSCC1", "note": "[Example 14, 7-Chloro-2-(4-thiomorpholinylcarbonyl)-1H-pyrrolo[2,3-c]pyridine]", "values": [{"measurement": "melting point", "value": "62 to 72", "unit": "°C"}]}, {"smiles": "O=C(c1ccccc1)c1cc2cc(Cl)ncc2[nH]1", "note": "[Example 73, (5-Chloro-1H-pyrrolo[2,3-c]pyridin-2-yl)(phenyl)methanone]", "values": [{"measurement": "melting point", "value": "194 to 197", "unit": "°C"}]}, {"smiles": "O=C(c1ccsc1)c1cc2ccncc2[nH]1", "note": "[Example 32, (1H-Pyrrolo[2,3-c]pyridin-2-yl)(thien-3-yl)methanone]", "values": [{"measurement": "melting point", "value": "178 to 181 °C (dec.)"}]}, {"smiles": "CC(C)(C)OC(=O)NCCCO/N=C(\\c1ccccc1)c1cc2ccncc2[nH]1", "note": "[Example 76, tert-Butyl 3-[[[phenyl(1H-pyrrolo[2,3-c]pyridin-2-yl)methylene]amino]oxy]propylcarbamate]", "values": [{"measurement": "melting point", "value": "52 to 58", "unit": "°C"}]}, {"smiles": "OC(c1ccccc1)c1cc2ccnc(N(Cc3ccccc3)Cc3ccccc3)c2[nH]1", "note": "(centres unmarked) [Example 46, [7-(Dibenzylamino)-1H-pyrrolo[2,3-c]pyridin-2-yl](phenyl)methanol]", "values": [{"measurement": "melting point", "value": "53 to 61", "unit": "°C"}]}, {"smiles": "O=C(NCc1ccccc1)c1cc2ccnc(Cl)c2[nH]1", "note": "[Example 2, N-Benzyl-7-chloro-1H-pyrrolo[2,3-c]pyridine-2-carboxamide]", "values": [{"measurement": "melting point", "value": "217 to 220", "unit": "°C"}]}, {"smiles": "Cl.Clc1nccc2cc(CN3CCCCC3)[nH]c12", "values": [{"measurement": "melting point", "value": "240 to 244", "unit": "°C"}]}, {"smiles": "OC(Cc1ccccc1)c1cc2ccncc2[nH]1", "note": "(centres unmarked) [Example 85, 2-Phenyl-1-(1H-pyrrolo[2,3-c]pyridin-2-yl)ethanol]", "values": [{"measurement": "melting point", "value": "169 to 172 °C (dec.)"}]}, {"smiles": "O=C(Nc1cccnc1)c1cc2ccnc(Cl)c2[nH]1", "note": "[Example 21, 7-Chloro-N-(3-pyridinyl)-1H-pyrrolo[2,3-c]pyridine-2-carboxamide]", "values": [{"measurement": "melting point", "value": "> 320", "unit": "°C"}]}]}
